Literature values in patent US10543256B2, “Stable pharmaceutical formulation comprising a reconstituted pulmonary surfactant composition” (CHIESI FARMACEUTICI S.P.A., priority 2016, dated 2020).

Conditions: at 25° C.

Cl.NC(CO)(CO)CO [TRIS, Tris(hydroxymethyl)aminomethane hydrochloride]
pKa: 8.06
